# ChEMBL document CHEMBL1240317, “Probing cell-division phenotype space and Polo-like kinase function using small molecules” (Nat Chem Biol, 2006)
# The source made the active and inactive calls. Unless noted, no cut-off for these calls is given here.
# How the values were obtained:
# PtK2 [1] = assay: Induction of monopolar mitotic spindles in rat kangaroo PtK2 cells expressing GFP-labeled alpha-tubulin at 6.3 uM after 4 hrs; assay type: functional, cell-based; conditions: Potorous tridactylus
# PtK2 [2] = assay: Inhibition of polo-like kinase 1 activity in rat kangaroo PtK2 cells expressing GFP-labeled alpha-tubulin assessed as shortening of chromosome associated microtubule fibres at 6.3 uM by spinning disk confocal microscopy in presence of 20 uM MG132; assay type: cell-based; conditions: Potorous tridactylus
# BSC-1 [3] = assay: Induction of monopolar mitotic spindles in african green monkey BSC1 cells assessed as kinesin-5 (Eg5) inhibition at 100 uM after 4 hrs; assay type: functional, cell-based; conditions: Chlorocebus aethiops
# BSC-1 [4] = assay: Induction of monopolar mitotic spindles in african green monkey BSC1 cells assessed as percentage of monopolar cells with two centrosomes at 5 uM after 4 hrs; assay type: functional, cell-based; conditions: Chlorocebus aethiops
# PtK2 [5] = assay: Antimitotic activity in rat kangaroo PtK2 cells expressing GFP-labeled alpha-tubulin in presence of monastrol assessed as cells remained in mitosis at 6 uM after 90 mins by phase-contrast microscopy; assay type: functional, cell-based; conditions: Potorous tridactylus
# U2OS [6] = assay: Induction of monopolar spindles and reduction in gamma-tubulin at the centrosomes in human U2OS cells at 25 uM after 4 hrs by immunofluorescence; assay type: functional, cell-based
# PtK2 [7] = assay: Inhibition of polo-like kinase 1 activity in rat kangaroo PtK2 cells expressing GFP-labeled alpha-tubulin assessed as stable microtubule bundles at 6.3 uM at 20 sec time interval for 5 min by spinning disk confocal microscopy; assay type: cell-based; conditions: Potorous tridactylus
# BSC-1 [8] = assay: Antimitotic activity against african green monkey BSC1 cells assessed as induction of sphere like organization at 2.5 uM by immunofluorescence microscopy; assay type: functional, cell-based; conditions: Chlorocebus aethiops
# PtK2 [9] = assay: Change in microtubule dynamics in rat kangaroo PtK2 cells expressing GFP-labeled alpha-tubulin by replacing with PLK inhibitor- free medium; assay type: functional, cell-based; conditions: Potorous tridactylus
# BSC-1 [10] = assay: Induction of reduced mitotic index in african green monkey BSC1 cells at 20 uM after 4 hrs by immunocytochemistry; assay type: functional, cell-based; conditions: Chlorocebus aethiops
# PtK2 [11] = assay: Inhibition of polo-like kinase 1 activity in rat kangaroo PtK2 cells expressing GFP-labeled alpha-tubulin assessed as V-shaped chromosome at 20 uM by spinning disk confocal microscopy in presence of 20 uM MG132; assay type: cell-based; conditions: Potorous tridactylus
# [12] = biological target: T1, Serine/threonine-protein kinase PLK1 (Homo sapiens, UniProt P53350); assay: Inhibition of recombinant polo-like kinase 1 activity at 100 nM by SDS-PAGE
# T1 sequence (P53350 whole entry): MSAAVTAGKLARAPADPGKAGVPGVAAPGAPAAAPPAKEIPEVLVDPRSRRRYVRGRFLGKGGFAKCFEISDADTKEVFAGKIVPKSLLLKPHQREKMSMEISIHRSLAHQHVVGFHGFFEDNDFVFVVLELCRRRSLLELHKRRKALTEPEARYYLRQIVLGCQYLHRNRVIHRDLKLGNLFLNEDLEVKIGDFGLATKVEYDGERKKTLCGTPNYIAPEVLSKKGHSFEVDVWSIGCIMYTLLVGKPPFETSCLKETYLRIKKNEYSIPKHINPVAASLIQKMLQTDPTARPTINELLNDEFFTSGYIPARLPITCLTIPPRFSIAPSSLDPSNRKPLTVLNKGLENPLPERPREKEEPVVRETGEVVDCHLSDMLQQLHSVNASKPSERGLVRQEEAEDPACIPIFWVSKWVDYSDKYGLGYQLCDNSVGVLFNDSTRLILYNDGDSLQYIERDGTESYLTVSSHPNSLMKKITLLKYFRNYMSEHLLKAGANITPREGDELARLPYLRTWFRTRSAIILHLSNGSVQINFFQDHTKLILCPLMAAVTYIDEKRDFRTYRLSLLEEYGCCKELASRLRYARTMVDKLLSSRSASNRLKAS
# PtK2 [13] = assay: Inhibition of polo-like kinase 1 activity in rat kangaroo PtK2 cells expressing GFP-labeled alpha-tubulin assessed as interkinetochore distance at 6 uM after 45 mins; assay type: cell-based; conditions: Potorous tridactylus
# BSC-1 [14] = assay: Antimitotic activity against african green monkey BSC1 cells assessed as induction of monopolar spindles at 20 uM by immunofluorescence microscopy; assay type: functional, cell-based; conditions: Chlorocebus aethiops
# PtK2 [15] = assay: Induction of mitotic index in rat kangaroo PtK2 cells expressing GFP-labeled alpha-tubulin after 4 hrs; assay type: functional, cell-based; conditions: Potorous tridactylus
# PtK2 [16] = assay: Inhibition of Aurora kinase activity in rat kangaroo PtK2 cells assessed as histone H3 phosphorylation at 6.3 uM after 1 hr by quantitative fluorescence; assay type: cell-based; conditions: Potorous tridactylus
# PtK2 [17] = assay: Inhibition of polo-like kinase 1 activity in rat kangaroo PtK2 cells expressing GFP-labeled alpha-tubulin assessed as V-shaped chromosome at 6.3 uM by spinning disk confocal microscopy in presence of 20 uM MG132; assay type: cell-based; conditions: Potorous tridactylus
# PtK2 [18] = assay: Inhibition of polo-like kinase 1 activity in rat kangaroo PtK2 cells expressing GFP-labeled alpha-tubulin assessed as phosphorylation of Cdc25c at centrosomes after 1 hr by quantitative immunofluorescence; assay type: cell-based; conditions: Potorous tridactylus
# PtK2 [19] = assay: Induction of monopolar mitotic spindles in rat kangaroo PtK2 cells expressing GFP-labeled alpha-tubulin after 4 hrs; assay type: functional, cell-based; conditions: Potorous tridactylus
# PtK2 [20] = assay: Inhibition of polo-like kinase 1 activity in rat kangaroo PtK2 cells expressing GFP-labeled alpha-tubulin assessed as shortening of chromosome associated microtubule fibres at 20 uM by spinning disk confocal microscopy in presence of 20 uM MG132; assay type: cell-based; conditions: Potorous tridactylus
# [21] = biological target: T1, Serine/threonine-protein kinase PLK1; assay: Inhibition of recombinant polo-like kinase 1 activity by SDS-PAGE
# BSC-1 [22] = assay: Antimitotic activity against african green monkey BSC1 cells assessed as induction of monopolar spindles by immunofluorescence microscopy; assay type: functional, cell-based; conditions: Chlorocebus aethiops
# U2OS [23] = assay: Induction of monopolar spindles and reduction in gamma-tubulin at the centrosomes in human U2OS cells at 50 uM after 4 hrs by immunofluorescence; assay type: functional, cell-based
# PtK2 [24] = assay: Inhibition of polo-like kinase 1 activity in rat kangaroo PtK2 cells expressing GFP-labeled alpha-tubulin assessed as phosphorylation of Cdc25c at 6.3 uM after 1 hr by quantitative immunofluorescence; assay type: cell-based; conditions: Potorous tridactylus
# PtK2 [25] = assay: Inhibition of Aurora kinase activity in rat kangaroo PtK2 cells assessed as histone H3 phosphorylation at 25 uM after 1 hr by quantitative fluorescence; assay type: cell-based; conditions: Potorous tridactylus
# PtK2 [26] = assay: Induction of monopolar mitotic spindles in rat kangaroo PtK2 cells expressing GFP-labeled alpha-tubulin at 20 uM after 4 hrs; assay type: functional, cell-based; conditions: Potorous tridactylus
# PtK2 [27] = assay: Inhibition of polo-like kinase 1 activity in rat kangaroo PtK2 cells expressing GFP-labeled alpha-tubulin assessed as phosphorylation of Cdc25c at 20 uM after 1 hr by quantitative immunofluorescence; assay type: cell-based; conditions: Potorous tridactylus
# PtK2 [28] = assay: Antimitotic activity in rat kangaroo PtK2 cells expressing GFP-labeled alpha-tubulin in presence of monastrol assessed as cells remained in mitosis at 20 uM after 90 mins by phase-contrast microscopy; assay type: functional, cell-based; conditions: Potorous tridactylus
# PtK2 [29] = assay: Inhibition of polo-like kinase 1 activity in rat kangaroo PtK2 cells expressing GFP-labeled alpha-tubulin assessed as interkinetochore distance at 20 uM after 45 mins; assay type: cell-based; conditions: Potorous tridactylus
# PtK2 [30] = assay: Inhibition of polo-like kinase 1 activity in rat kangaroo PtK2 cells expressing GFP-labeled alpha-tubulin assessed as interkinetochore distance at 33 uM after 45 mins; assay type: cell-based; conditions: Potorous tridactylus
# BSC-1 [31] = assay: Antimitotic activity against african green monkey BSC1 cells assessed as induction of monopolar spindles and two separated astral microtubule array at 20 uM by immunofluorescence microscopy; assay type: functional, cell-based; conditions: Chlorocebus aethiops
# BSC-1 [32] = assay: Induction of deffects in mitotic spindle in african green monkey BSC1 cells at 20 uM after 4 hrs by immunocytochemistry; assay type: functional, cell-based; conditions: Chlorocebus aethiops
# BSC-1 [33] = assay: Induction of monopolar mitotic spindles in african green monkey BSC1 cells assessed as percentage of monopolar cells with two centrosomes at 20 uM after 4 hrs; assay type: functional, cell-based; conditions: Chlorocebus aethiops
# BSC-1 [34] = assay: Antimitotic activity against african green monkey BSC1 cells assessed as induction of normal spindles at 2.5 uM by immunofluorescence microscopy; assay type: functional, cell-based; conditions: Chlorocebus aethiops
structure (smiles),measurement,setting,value
CC(=O)Nc1ccc(Nc2ncc([N+](=O)[O-])c(Nc3ccccc3C(=O)c3ccccc3)n2)cc1,Activity,PtK2 [1],Active
same,inhibition,PtK2 [2],Active
same,Activity,BSC-1 [3],Active
same,Activity,BSC-1 [4],Active
same,Activity,PtK2 [5],Active
same,Activity,U2OS [6],Active
same,inhibition,PtK2 [7],Active
same,Activity,BSC-1 [8],Active
same,Activity,PtK2 [9],Active
same,Activity,BSC-1 [10],Active
same,inhibition,PtK2 [11],Active
same,inhibition,[12],inactive
same,interkinetochore distance,PtK2 [13],1.9 µm
same,Activity,BSC-1 [14],Active
same,Activity,PtK2 [15],Dose-dependent effect
same,inhibition,PtK2 [16],20%
same,inhibition,PtK2 [17],Active
same,Activity,PtK2 [18],Dose-dependent effect
same,Activity,PtK2 [19],Dose-dependent effect
same,inhibition,PtK2 [20],Active
same,IC50,[21],0.9 µM
same,EC50,BSC-1 [22],5 µM
same,Activity,U2OS [23],Active
same,inhibition,PtK2 [24],Active
N#Cc1cc([N+](=O)[O-])c2sc(C(N)=O)[n+]([O-])c2c1,inhibition,PtK2 [25],20%
same,Activity,U2OS [6],Active
same,Activity,PtK2 [26],Active
same,inhibition,PtK2 [27],Active
same,Activity,PtK2 [15],Dose-dependent effect
same,Activity,PtK2 [28],Active
same,interkinetochore distance,PtK2 [29],2.3 µm
same,Activity,PtK2 [18],Dose-dependent effect
same,Activity,PtK2 [19],Dose-dependent effect
same,IC50,[21],8 µM
same,Activity,U2OS [23],Active
COC(=O)Nc1nc2cc(C(=O)c3cccs3)ccc2[nH]1,interkinetochore distance,PtK2 [30],1.4 µm
c1cc(Nc2ccc3c(c2)CCC3)nc(Nc2ccc3ncsc3c2)n1,Activity,BSC-1 [31],Active
same,Activity,BSC-1 [3],Active
same,Activity,BSC-1 [32],Active
same,Activity,BSC-1 [33],Active
same,EC50,BSC-1 [22],30 µM
same,Activity,BSC-1 [34],Active
